Like-named read-outs stand apart in the source and are kept apart here. Where a SMILES comes first, the peptide text is derived from it. Where no end group is shown, it is not given here. The star is where a group is joined. Cbz = O=C(OCc1ccccc1)*; CH2F = FC*
Columns and labels:
[1] = test system: Human umbilical vein endothelial cells (HUVEC); assay: Endothelial cell migration assay (transwell) on ECM substrates; type: cell-based; settings: for endothelial cell migration on vitronectin: 1 μM peptide
Description: Human umbilical vein endothelial cells (HUVEC) were grown in Endothelial Growth Medium (containing 2% fetal bovine serum, bFGF and VEGF) (Clonetics, San Diego, Calif.). To render HUVECs quiescent for Rac and/or Rho assays, monolayers of endothelial cells were incubated for 18 hrs in Endothelial Basal Medium supplemented with 0.1% serum (Clonetics). Cell migration and adhesion assays on ECM substrates were performed as previously described in Kim et al. (S. Kim et al., Amer. J. Biol. Chem., 275:33920-33928 (2000); and S. Kim et al., Amer. J. Path., 156:1345-1362 (2000)).
Migration assays were performed essentially as described (Kim, et. al., 2000). […] HUVECS (25,000) were added to the upper chamber of inserts in migration buffer (Hepes buffered M199 medium containing 1% BSA, 2 mM MgCl2, 2 mM CaCl2 and 0.2 mM MnCl2) containing 25 μg/ml of various antibodies. In some experiments, 250 μM dibutyryl cAMP was placed in the upper and lower chambers of the transwell. Cells were allowed to migrate from the upper to the lower chamber for four hours at 37° C. The number of cells which had migrated were counted in three representative high power (200×) fields per insert. The data are presented as number of cells migrating+/−standard error of the mean. Migration assays were similarly performed on transfected cells. In this case, migrated transfected cells were identified by fluorescent microscopy and counted.

[2] = test system: chick chorioallantoic membrane (CAM); assay: Chick chorioallantoic membrane (CAM) angiogenesis assay; type: in vivo, chicken; settings: for effect on inhibition of angiogenesis by anti-αvβ3: 500 μM caspase inhibitors; for effect on inhibition of angiogenesis by anti-α5β1: 500 μM caspase inhibitors or 4 μg plasmid; for angiogenesis (blood vessel branch points, vessel density): 1 μM peptide
[3] = test system: HUVECS; assay: Annexin V-FITC staining of HUVECs (apoptosis); type: cell-based, human
Description: Plates were also coated with […] goat anti-mouse IgG (Southern Biotechnology Associates, Inc., Birmingham, Ala.) at 37° C. for 2 h, rinsed, blocked with denatured BSA, and then incubated with […] anti-a5b1 or control IgG (anti-MHC) at 4° C. for 16 hrs. HUVECs were incubated on plates in the presence or absence of 10 mg/ml anti-α5β1, -αvβ3, -α2β1, or -MHC for 0-24 hrs. In some experiments, HUVECs were incubated with antibodies and […] caspase-3, -8 or -9 inhibitors or vehicle control (0.5% DMSO). Cells were then incubated with Annexin V-FITC for 15 min at room temperature in the dark. Washed cells were fixed in 1% paraformaldehyde, then incubated in DAPI. The percentage of Annexin positive cells in 5 microscopic fields was determined at 200× magnification by fluorescence microscopy.
(§1) HUVECs were plated for 24 h on ECM protein-coated plates in the presence of anti-αvβ3 or anti-α5β1, 1 μM HA1004 (a PKA inhibitor), and anti-αvβ3 or anti-α5β1 with 1 μM HA1004. Cells were stained with FITC-Annexin V or immunoblotted with anti-cleaved caspase 3 antibodies as described above. 5×10^6 HUVECs were electroporated in 300 μl of EGM with 30 μg of DNA (20 μg dnPKA or PKAcat plasmids, 2 μg N1-GFP and 8 μg pBluescript) at 300 V, 450 μF as previously described (Dormond et al. (2001) Nature Med. 7,1041-7). Expression of transgenes was determined by Western blotting of cell lysates with anti-V5 and anti-GFP antibodies. Transfection efficiency was quantified by determining the percent of cells that were co-transfected with GFP-expression vectors. Eighty-percent transfection efficiency was generally achieved using this electroporation method.

[4] = test system: HUVECS; assay: Apoptosis assays in HUVECs (PARP and caspase immunoblots, caspase activity, DNA fragmentation); type: cell-based, human
Description: In some embodiments, HUVECs were incubated on ECM or antibody coated plates for 0-24 hrs. DNA fragmentation was detected by agarose gel electrophoresis as described in M. Herrmann et al. (See, M. Herrmann et al., Nucleic Acids Res., 22:5506-5507 (1994)). Alternatively, HUVECS on plates were lyzed with RIPA buffer (See, S. Kim et al., J. Biol. Chem., 275:33920-33928 (2000)) on ice. Lysates were electrophoresed on 8% SDS-PAGE gels and immunoblotted with anti-PARP, -caspase-3, -caspase-9, -cleaved caspase 3, or -cleaved caspase-9 antibodies. Immunoreactive bands were identified by chemiluminescence and quantified by densitometry. Caspase 3 and 8 activities were determined in cell lysates according to manufacturer's instructions (Calbiochem, La Jolla, Calif.).
as §1

[5] = test system: chick chorioallantoic membrane (CAM); assay: Apoptosis markers in CAM blood vessels in vivo (Annexin V, cleaved caspases, TUNEL, DNA gels); design: species or system chicken; settings: for caspase activity in vivo (cleaved caspase immunoblot): CAMs treated with anti-α5β1 and caspase inhibitor; for effect on endothelial cell DNA fragmentation induced by α5β1 inhibition in vivo: TUNEL staining of CAM cryosections
Description: CAM assays were performed as described (Kim et al. (2000) Am. J. Path. 156:1345-1362). Saline or bFGF stimulated CAMs were treated for 24 h with 20 μg anti-α5β1, anti-αvβ3 or control antibodies and then injected intravenously with 50 μl Annexin V-FITC. CAMs were harvested after 2 h, then analyzed by confocal microscopy. Alternatively, CAMs treated as above were excised, minced on ice, and treated with 0.1% dispase/0.1% collagenase for 1 h at 37° C. Single cell suspensions were incubated with FITC-Annexin V and analyzed as described above. bFGF stimulated CAMs were also treated with anti-α5β1 or anti-αvβ3 in the presence or absence of 500 μM caspase-3, -8 or -9 inhibitors. bFGF stimulated CAMs were also transfected with 4 μg N1-GFP, dnPKA or PKAcat expression plasmids. Freshly excised CAMs were homogenized in ice cold RIPA buffer containing protease inhibitors and immunoblotted to detect intact and cleaved caspase 3 or 8. For all treatment groups, n=10. CAMs were fixed with 3.7% paraformaldehyde prior to excision. The average number of blood vessel branch points per treatment group+/−SEM is presented. Some excised CAMs were cryopreserved, cut into 5 μm sections, immunostained with anti-cleaved caspase 3, anti-cleaved caspase 8 and anti-VFW antibodies (to detect blood vessels). CAMs were also stained by the TUNEL method to detect fragmented DNA.

[6] = test system: DU145 prostate carcinoma tumors; assay: DU145 tumor assay in nude mice; type: in vivo; settings: daily intravenous injections, ten days
[7] = test system: protein kinase A; assay: PKA activity assay in HUVECs; type: cell-based, human
Description: PKA activity was measured in HUVECs essentially as previously described in Kim et al (S. Kim et al., Amer. J. Biol. Chem., 275:33920-33928 (02000)). HUVECs were placed in suspension, allowed to attach to ECM protein coated plates in the absence or presence of anti-integrin antibodies or were treated with 10 μM PTHrP and/or 250 μM cAMP. PKA activity was measured at various times from 0-4 hrs (e.g., 2-30 min).
Plates were washed and blocked in 3% bovine serum albumin for 1 hour at 37° C. HUVECS were trypsinized and resuspended in adhesion buffer (Hanks balanced salt solution supplemented with 10 mM HEPES, pH 7.4, 2 mM MgCl2, 2 mM CaCl2, 0.2 mM MnCl2, 1% BSA. Cells were plated on matrix protein coated plates in culture medium or in the presence of 25 μg/ml anti-α5β1, anti-αvβ3 or anti-α2β1 antibodies for various times from 0 minutes to 4 hours. Plates were washed with phosphate buffered saline and cells were extracted with cold extraction buffer (50 mM Tris, pH 7.5, 5 mM EDTA, 25 μg/ml aprotinin and 25 μg/ml leupeptin). Protein Kinase A activity was assessed using a kit from Gibco BRL. Briefly, equal volumes of lysate and reaction mixture containing final concentrations of 50 mM Tris, pH 7.5, 10 mM MgCl2, 0.25 mg/ml BSA, 50 μM Kemptide (a protein kinase A substrate), 3000 Ci/mmol (γ^32 P) ATP and 100 μM ATP were combined for 5 minutes at 30° C. Total PKA in each sample was measured by performing the assay in the presence of 10 μM cAMP. Background PKA activity in test and total PKA samples were determined by performing the assay in the presence of a PKA inhibitor peptide, PKI (6-22) amide. Twenty μl samples of reaction mixtures were spotted onto phosphocellulose discs and washed repeatedly with 1% (v/v) phosphoric acid in water. Incorporated radioactivity was determined by scintillation counting. Activated PKA was calculated from the ratio of pmol/min test sample PKA to pmol/min total PKA. PKA activity in triplicate samples was measured and experiments were repeated at least three times.
In another embodiment, PKA assays were performed with a kit from Calbiochem (San Diego, Calif.). Cell lysates were incubated in ELISA plates coated with a PKA peptide substrate, then incubated with anti-phosphoserine antibodies. Bound antibody was detected after incubation with anti-rabbit IgG-horse radish peroxidase. Statistical analyses were performed using Student's t-test.

O=S(=O)(NCCNCC=Cc1ccc(Br)cc1)c1cccc2cnccc12 [H89, N-(2-(p-bromocinnamylamino)ethyl)-5-isoquinoline sulfonamide]
effect on cAMP-, PKA catalytic subunit- or PTHrP-mediated inhibition of cell migration ([1]; HUVEC on vitronectin): blocked the anti-migratory properties of PTHrP
effect on inhibition of angiogenesis by PTHrP ([2]; bFGF stimulated CAMs, 8B12, 480 nM H89 or dnPKA plasmid): blocks the suppression of angiogenesis induced by PTHrP 1-34

NC(N)=NCCNS(=O)(=O)c1cccc2cnccc12 [HA1004]
effect on apoptosis induced by integrin antagonists ([3]; PKA inhibition (1 μM HA1004 or dnPKA), 24 h): substantially suppressed the apoptosis
effect on caspase 3 cleavage induced by anti-α5β1 ([4]; cells attached to vitronectin): blocked caspase 3 cleavage

COC(=O)CC[C@H](NC(=O)[C@H](CC(=O)OC)NC(=O)OCc1ccccc1)C(=O)N[C@H](C(=O)N[C@@H](CC(=O)OC)C(=O)CF)C(C)C [caspase 3 inhibitors, z-DEVD-fmk]
effect on cell death induced by anti-α5β1 antibodies ([3]; 50 μM caspase inhibitor, cells on fibronectin or vitronectin, 24 h): blocked
effect on inhibition of angiogenesis by anti-αvβ3 ([2]; bFGF stimulated CAMs): partially reversed
effect on inhibition of angiogenesis by anti-α5β1 ([2]; bFGF stimulated CAMs): partially reversed
caspase activity in vivo (cleaved caspase immunoblot) [5]: partially blocked caspase 3 activity in vivo
effect on endothelial cell DNA fragmentation induced by α5β1 inhibition in vivo [5]: prevented in vivo endothelial cell DNA fragmentation

CC[C@H](C)[C@H](NC(=O)OCc1ccccc1)C(=O)N[C@@H](CCC(=O)OC)C(=O)N[C@H](C(=O)N[C@@H](CC(=O)OC)C(=O)CF)[C@@H](C)O [caspase 8 inhibitors, z-IETD-fmk] (Cbz-IE(OMe)TD(OMe)-CH2F)
effect on inhibition of angiogenesis by anti-αvβ3 ([2]; bFGF stimulated CAMs): partially reversed
effect on inhibition of angiogenesis by anti-α5β1 ([2]; bFGF stimulated CAMs): fully reversed
caspase activity in vivo (cleaved caspase immunoblot) [5]: completely blocked its activity in vivo
effect on endothelial cell DNA fragmentation induced by α5β1 inhibition in vivo [5]: prevented in vivo endothelial cell DNA fragmentation

H L Q A H S V E D L (HLQAHSVEDL) [scrambled 1-10, scrambled version of PTHrP 1-10, control peptide]
endothelial cell migration on vitronectin [1]: unable to inhibit cell migration
tumor growth ([6]; final serum concentration 1 μM): but not a scrambled control peptide, suppressed tumor growth and tumor angiogenesis
tumor angiogenesis (CD31 vessels) [6]: but not a scrambled control peptide, suppressed tumor growth and tumor angiogenesis

PTHrP 1-86: PTHrP fragment containing the N-terminus, amino acids 1-86
endothelial cell migration on vitronectin [1]: inhibited migration
angiogenesis (blood vessel branch points, vessel density) ([2]; bFGF stimulated CAMs): potently inhibited angiogenesis

PTHrP 15-34: PTHrP fragment, amino acids 15-34 (IQDLRRRFFLHHLIAEIHTA)
endothelial cell migration on vitronectin [1]: unable to inhibit cell migration

PTHrP 107-138: PTHrP fragment lacking the N-terminus (TRSAWLDSGVTGSGLEGDHLSDTSTTSLELDS; UniProt P12272 143-174, looked up, fragment)
endothelial cell migration on vitronectin [1]: not able to inhibit cell migration

calcitonin: a calcium regulating peptide hormone (CGNLSTCMLGTYTQDFNKFHTFPQTAIGVGAP; ends and bridges not checked; cysteine pairing not given here; UniProt P01258 85-116, looked up)
angiogenesis (blood vessel branch points, vessel density) ([2]; bFGF stimulated CAMs): Only PTHrP inhibited angiogenesis
pre-existing vessels (number, size, composition) ([2]; saline-stimulated CAMs): no effect on the number, size or composition of pre-existing vessels

cholera toxin
PKA activation [7]: activates PKA

fibronectin: ECM protein used as culture substrate
annexin V binding of HUVECs by culture substrate ([3]; coated plates, 0-8 h): bind little annexin V
DNA fragmentation by culture substrate ([4]; HUVECs on coated plates): protects HUVECs from DNA fragmentation
PARP cleavage by culture substrate ([4]; HUVECs on coated plates): showed little PARP cleavage

pertussis toxin
PKA activation ([7]; inventors' data, no details given): inhibits PKA activation
